Reference: ChEMBL document CHEMBL3632497, “Insights into Structure-Activity Relationships of Bacterial RNA Polymerase Inhibiting Corallopyronin Derivatives” (2015)
≈ marks a conversion by molar mass, not a printed value. Calls of active or inactive are those of the source. The calls are words filed in the database; no cut-off is given here.

Experiments:
Staphylococcus simulans = test: Antibacterial activity against Staphylococcus simulans 22 after 24 hrs; type: functional; conditions: Staphylococcus simulans, 22, 24 h
Mycolicibacterium phlei = test: Antibacterial activity against Mycobacterium phlei after 24 hrs; type: functional
Bacillus licheniformis [1] = test: Antibacterial activity against Bacillus licheniformis MW3 after 24 hrs; type: functional; conditions: MW3, 24 h
Bacillus cereus = test: Antibacterial activity against Bacillus cereus after 24 hrs; type: functional
Bacillus licheniformis [2] = test: Antibacterial activity against Bacillus licheniformis DSM13 after 24 hrs; type: functional; conditions: DSM 13 = ATCC 14580, 24 h
Bacillus subtilis = test: Antibacterial activity against Bacillus subtilis 168 after 24 hrs; type: functional; conditions: subsp. subtilis str. 168, 24 h
Micrococcus luteus = test: Antibacterial activity against Micrococcus luteus ATCC 4698 after 24 hrs; type: functional; conditions: ATCC 4698, 24 h
[3] = system: Mycolicibacterium smegmatis; test: Antibacterial activity against Mycobacterium smegmatis after 24 hrs; type: functional
Staphylococcus aureus [4] = test: Antibacterial activity against Staphylococcus aureus SG511 after 24 hrs; type: functional; conditions: SG511, 24 h
Wolbachia [5] = test: Antibacterial activity against Wolbachia infected in C6/36 cells assessed as decrease in 16s rRNA copies at 0.01, 0.1 and 0.5 microg/ml by qPCR analysis; type: functional, cell-based
Staphylococcus aureus [6] = test: Antibacterial activity against Staphylococcus aureus; type: functional
Priestia megaterium = test: Antibacterial activity against Bacillus megaterium; type: functional
Wolbachia [7] = test: Antibacterial activity against Wolbachia infected in C6/36 cells assessed as decrease in 16s rRNA copies by qPCR analysis; type: functional, cell-based
Escherichia coli = test: Antibacterial activity against Escherichia coli; type: functional, organism-based
Wolbachia [8] = test: Antibacterial activity against Wolbachia; type: functional

SMILES | MIC (Staphylococcus simulans) | MIC (Mycolicibacterium phlei) | MIC (Bacillus licheniformis [1]) | other results
C/C=C/C/C=C(/C)[C@@H](CC/C(C)=C/C=C(\C)C(=O)c1c(O)cc([C@H](C)CC/C=C/NC(=O)OC)oc1=O)OC(=O)c1ccccc1 | > 64 µg/mL | > 64 µg/mL | 64 µg/mL (≈ 101 µM) | 
C/C=C/C/C=C(/C)[C@@H](CC/C(C)=C/C=C(\C)C(=O)c1c(O)cc([C@H](C)CC/C=C/NC(=O)OC)oc1=O)OC(=O)c1ccc(F)cc1 | > 64 µg/mL |  | > 64 µg/mL | 
C/C=C/C/C=C(/C)CCC/C(C)=C/C=C(\C)C(=O)c1c(O)cc([C@H](C)CC/C=C/NC(=O)OC)oc1=O | 4 µg/mL (≈ 7.82 µM) |  |  | MIC (Bacillus cereus): 2 µg/mL (≈ 3.91 µM); MIC (Bacillus licheniformis [2]): 4 µg/mL (≈ 7.82 µM); MIC (Bacillus subtilis): 32 µg/mL (≈ 62.5 µM); MIC (Micrococcus luteus): 4 µg/mL (≈ 7.82 µM); MIC [3]: > 64 µg/mL; MIC (Staphylococcus aureus [4]): 2 µg/mL (≈ 3.91 µM); inhibition (Wolbachia [5]): Active
C/C=C/C/C=C(/C)[C@@H](CC/C(C)=C/C=C(\C)C(=O)c1c(O)cc([C@H](C)CC/C=C/NC(=O)OC)oc1=O)OC(=O)[C@](OC)(c1ccccc1)C(F)(F)F | 32 µg/mL (≈ 43 µM) | > 64 µg/mL | > 16 µg/mL | 
C/C=C/C/C=C(/C)C1CCC(C)(C/C=C(\C)C(=O)c2c(O)cc([C@H](C)CC/C=C/NC(=O)OC)oc2=O)O1 (some centres not stated) |  |  |  | MIC (Staphylococcus aureus [6]): 0.4 µg/mL (≈ 0.758 µM); MIC (Priestia megaterium): 1.6 µg/mL (≈ 3.03 µM)
C/C=C/C/C=C(/C)[C@@H](CC/C(C)=C/C=C(\C)C(=O)c1c(O)cc([C@H](C)CC/C=C/NC(=O)OC)oc1=O)OC(=O)COC(C)=O | > 64 µg/mL |  | > 64 µg/mL | 
C/C=C/C/C=C(\C)C(O)CC/C(C)=C/C=C(\C)C(=O)c1c(O)cc([C@H](C)CC/C=C/NC(=O)OC)oc1=O (some centres not stated) [CORALLOPYRONIN A] | 1 µg/mL (≈ 1.9 µM) | > 64 µg/mL | 64 µg/mL (≈ 121 µM) | MIC (Bacillus cereus): 2 µg/mL (≈ 3.79 µM); MIC (Bacillus licheniformis [2]): 2 µg/mL (≈ 3.79 µM); MIC (Bacillus subtilis): 16 µg/mL (≈ 30.3 µM); MIC (Micrococcus luteus): 1 µg/mL (≈ 1.9 µM); MIC [3]: > 64 µg/mL; MIC (Staphylococcus aureus [4]): 0.5 µg/mL (≈ 0.948 µM); inhibition (Wolbachia [7]): Dose-dependent effect
CC/C=C/C/C=C(/C)[C@H](O)CC/C(C)=C/C=C(\C)C(=O)c1c(O)cc([C@H](C)CC/C=C/NC(=O)OC)oc1=O |  |  |  | MIC (Staphylococcus aureus [6]): 0.4 µg/mL (≈ 0.738 µM); MIC (Priestia megaterium): 1.6 µg/mL (≈ 2.95 µM)
C/C=C/C/C=C(/C)[C@@H](CC/C(C)=C/C=C(\C)C(=O)c1c(O)cc([C@H](C)CC/C=C/NC(=O)OC)oc1=O)OC(=O)c1cccs1 | > 64 µg/mL |  | > 64 µg/mL | 
C/C=C/C/C=C(/C)[C@@H](CC/C(C)=C/C=C(\C)C(=O)c1c(O)cc([C@H](C)CC/C=C/NC(=O)OC)oc1=O)OC(=O)[C@@](OC)(c1ccccc1)C(F)(F)F | 64 µg/mL (≈ 86 µM) | > 64 µg/mL | > 16 µg/mL | 
C/C=C/C/C=C(/C)C(O)CC/C(C)=C\C=C(/C)C(=O)c1c(O)cc([C@H](C)CC/C=C/NC(=O)OC)oc1=O (some centres not stated) |  |  |  | MIC (Staphylococcus aureus [6]): 0.1 µg/mL (≈ 0.19 µM); MIC (Priestia megaterium): 0.8 µg/mL (≈ 1.52 µM)
CCCCCCCCCCCCC/C=C/[C@@H](O)[C@H](CO)NC(=O)CCCCCCNC(=O)OC |  |  |  | Activity (Priestia megaterium): inactive; Activity (Escherichia coli): inactive; Activity (Wolbachia [8]): inactive
C/C=C/C/C=C(/C)[C@@H](CC/C(C)=C/C=C(\C)C(=O)c1c(O)cc([C@H](C)CC/C=C/NC(=O)OC)oc1=O)OC(=O)c1ccco1 | 64 µg/mL (≈ 103 µM) | > 64 µg/mL | 64 µg/mL (≈ 103 µM) | 
C/C=C/C/C=C(/C)[C@@H](CC/C(C)=C/C=C(\C)C(=O)c1c(O)cc([C@H](C)CC/C=C/NC(=O)OC)oc1=O)OC(C)=O | 64 µg/mL (≈ 112 µM) | > 64 µg/mL | 64 µg/mL (≈ 112 µM) | 
C/C=C/C/C=C(/C)[C@@H](CC/C(C)=C/C=C(\C)C(=O)c1c(O)cc([C@H](C)CC/C=C/NC(=O)OC)oc1=O)OC(=O)CCCCCCCCC | > 64 µg/mL |  | 64 µg/mL (≈ 93.9 µM) | 
C/C=C/C/C=C(/C)C(=O)CC/C(C)=C/C=C(\C)C(=O)c1c(O)cc([C@H](C)CC/C=C/NC(=O)OC)oc1=O | 16 µg/mL (≈ 30.4 µM) |  | 32 µg/mL (≈ 60.9 µM) | 
